Each compound was assayed against T1, RORγ (Homo sapiens, UniProt P51449) (assay: Reporter Gene Assay (RGA): nuclear receptor transactivation assay, inhibition of RORγ transactivation of a luciferase reporter in transiently transfected HEK 293 cells). Settings: not given.
T1 construct: expressed in transfected cells; host or cells: HEK 293 cells, transiently transfected
T1 sequence (P51449 269-508 limits assumed): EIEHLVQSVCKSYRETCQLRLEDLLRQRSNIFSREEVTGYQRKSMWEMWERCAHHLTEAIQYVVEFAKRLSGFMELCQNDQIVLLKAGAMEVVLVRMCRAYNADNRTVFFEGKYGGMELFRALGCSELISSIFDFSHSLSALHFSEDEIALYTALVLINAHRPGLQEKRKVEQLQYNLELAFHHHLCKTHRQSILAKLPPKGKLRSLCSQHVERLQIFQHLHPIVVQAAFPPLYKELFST
Format: cell-based

Row | SMILES | IC50
1 | CCS(=O)(=O)c1ccc(CNc2nc3cnc(-c4c(C5CC5)ncnc4C4CC4)nc3n(C3CC3)c2=O)cc1 [Example 38] | 1100 nM
2 | CCS(=O)(=O)c1ccc(CNc2nc3cnc(-c4c(OC)ncnc4C4CC4)nc3n(CC(C)(C)F)c2=O)nc1 [Example 106] | 1150 nM
3 | CC[C@H](C)n1c(=O)c(NCc2ccc(S(N)(=O)=O)cn2)nc2cnc(-c3c(OC)ncnc3C3CC3)nc21 [Example 122] | 150 nM
4 | CCS(=O)(=O)N1C[C@@H]2C(CNc3nc4cnc(-c5c(C)ncnc5C5CC5)nc4n([C@@H](C)C4CC4)c3=O)[C@@H]2C1 (stereo partly drawn) [Example 163] | 160 nM
5 | CCS(=O)(=O)c1ccc(CNc2nc3cnc(-c4c(C)ncnc4C4CC4)nc3n([C@@H](C)C(F)(F)F)c2=O)cc1 [Example 177] | 73 nM

Same assay, conditions: read-out: RGA IC50

Row | SMILES | IC50
6 | CCS(=O)(=O)c1ccc(CNc2nc3cnc(-c4c(OC)ncnc4C4CC4)nc3n([C@H]3C[C@@H]3C(F)(F)F)c2=O)nc1 (stereo in doubt) [Example 110] | 1350 nM
7 | CCC(C)n1c(=O)c(NCc2ccc(S(C)(=O)=O)cc2)nc2cnc(-c3c(C)ncnc3C3CC3)nc21 (stereo not drawn) [Example 14] | 310 nM
8 | CCC(CC)n1c(=O)c(NCc2ccc(S(=O)(=O)CC)cn2)nc2cnc(-c3c(C4CC4)ncnc3C3CC3)nc21 [Example 16] | 320 nM
9 | CC[C@H](C)n1c(=O)c(NCc2ccc(S(=O)(=O)CC)cn2)nc2cnc(-c3c(C)ncnc3C3CC3)nc21 [Example 20] | 330 nM
10 | CCS(=O)(=O)c1ccc(CNc2nc3cnc(-c4c(C5CC5)ncnc4C4CC4)nc3n([C@H](C)C(C)C)c2=O)nc1 [Example 25] | 410 nM
11 | CCC(C)n1c(=O)c(NCc2ccc(S(C)(=O)=O)cc2)nc2cnc(-c3c(OC)ncnc3C3CC3)nc21 (stereo not drawn) [Example 26] | 420 nM
12 | CCS(=O)(=O)c1ccc(CNc2nc3cnc(-c4c(OC)ncnc4C4CC4)nc3n(C3(C)CC3(F)F)c2=O)nc1 (stereo not drawn) [Example 36] | 880 nM
13 | CCS(=O)(=O)c1ccc(CNc2nc3cnc(-c4c(OC)ncnc4C4CC4)nc3n(C3CC3)c2=O)cc1 [Example 43] | 2600 nM
14 | CS(=O)(=O)c1ccc(CNc2nc3cnc(-c4c(C5CC5)ncnc4C4CC4)nc3n(C3CC3)c2=O)cc1 [Example 46] | 3000 nM
15 | CCS(=O)(=O)c1ccc(CNc2nc3cnc(-c4c(C)ncnc4C4CC4)nc3n(-c3ccccc3)c2=O)nc1 [Example 48] | 3800 nM
16 | CCS(=O)(=O)c1ccc(CNc2nc3cnc(-c4c(OC)ncnc4C4CC4)nc3n(C3(C#N)CC3)c2=O)nc1 [Example 50] | 4400 nM
17 | CCS(=O)(=O)c1ccc(CNc2nc3cnc(-c4c(C5CC5)ncnc4C4CC4)nc3n(C3CC3)c2=O)cn1 [Example 51] | 7600 nM
18 | CC[C@H](C)n1c(=O)c(NCc2ccc(S(=O)(=O)CC)cn2)nc2cnc(-c3c(C)ncnc3C(F)(F)F)nc21 [Example 58] | 420 nM
19 | CCS(=O)(=O)c1ccc(CNc2nc3cnc(-c4c(C)ncnc4C4CC4)nc3n([C@@H](C)C(C)C)c2=O)nc1 [Example 66] | 410 nM
20 | CCS(=O)(=O)c1ccc(CNc2nc3cnc(-c4c(C)ncnc4C4CC4)nc3n([C@H](C)C(C)C)c2=O)nc1 [Example 67] | 370 nM
21 | CCS(=O)(=O)N1CCC(CNc2nc3cnc(-c4c(OC)ncnc4C4CC4)nc3n([C@H](C)C3CC3)c2=O)CC1 [Example 76] | 1600 nM
22 | CC[C@@H](C)n1c(=O)c(NCc2ccc(S(=O)(=O)CC)cn2)nc2cnc(-c3c(C)ncnc3C3CC3)nc21 [Example 84] | 400 nM

Row | SMILES | IC50
23 | CCS(=O)(=O)c1ccc(CNc2nc3cnc(-c4c(C)ncnc4C4CC4)nc3n(CC(C)(C)F)c2=O)nc1 [Example 105] | 1600 nM
24 | CCS(=O)(=O)c1ccc(CNc2nc3cnc(-c4c(OC)ncnc4C4CC4)nc3n([C@H]3CCC[C@H]3C#N)c2=O)nc1 [Example 108] | 300 nM
25 | CCS(=O)(=O)c1ccc(CNc2nc3cnc(-c4c(OC)ncnc4C4CC4)nc3n([C@H]3CCC[C@@H]3C#N)c2=O)nc1 [Example 109] | 790 nM
26 | CCS(=O)(=O)c1ccc(CNc2nc3cnc(-c4c(C)ncnc4C4CC4)nc3n([C@H]3CCC[C@H]3C#N)c2=O)nc1 [Example 111] | 460 nM
27 | CCS(=O)(=O)c1ccc(CNc2nc3cnc(-c4c(C)ncnc4C4CC4)nc3n([C@H]3CCC[C@@H]3C#N)c2=O)nc1 [Example 112] | 920 nM
28 | COc1ncnc(C2CC2)c1-c1ncc2nc(NCc3ccc(S(N)(=O)=O)cn3)c(=O)n(CC3CCC3)c2n1 [Example 116] | 300 nM
29 | CCS(=O)(=O)c1ccc(CNc2nc3cnc(-c4c(C)ncnc4C4CC4)nc3n(C3CCCC3=O)c2=O)nc1 (stereo not drawn) [Example 119] | 720 nM
30 | CCS(=O)(=O)c1ccc(CNc2nc3cnc(-c4c(OC)ncnc4C4CC4)nc3n(C3CCCC3=O)c2=O)nc1 (stereo not drawn) [Example 120] | 420 nM
31 | CC[C@@H](C)n1c(=O)c(NCc2ccc(S(N)(=O)=O)cn2)nc2cnc(-c3c(C)nc(N)nc3C3CC3)nc21 [Example 129] | 2500 nM
32 | COc1cc(C#N)ccc1CNc1nc2cnc(-c3c(C)ncnc3C3CC3)nc2n([C@@H](C)C2CC2)c1=O [Example 133] | 1040 nM
33 | CCS(=O)(=O)c1ccc(CNc2nc3cnc(-c4cnc(N)nc4C(C)C)nc3n(C(C)C)c2=O)nc1 [Example 140] | 730 nM
34 | COc1ncnc(C2CC2)c1-c1ncc2nc(NCc3ccc(S(C)(=O)=O)cn3)c(=O)n(C(C)C)c2n1 [Example 149] | 305 nM
35 | CCS(=O)(=O)N1CC2(CC(CNc3nc4cnc(-c5c(OC)ncnc5C5CC5)nc4n([C@@H](C)C4CC4)c3=O)C2)C1 [Example 152] | 470 nM
36 | CC(=O)N1CCC(CNc2nc3cnc(-c4c(C)ncnc4C4CC4)nc3n([C@@H](C)C3CC3)c2=O)CC1 [Example 166] | 1600 nM
37 | CCCc1ncnc(C)c1-c1ncc2nc(NCc3ccc(S(=O)(=O)CC)cn3)c(=O)n(C(C)C)c2n1 [Example 172] | 440 nM
38 | CCc1ncnc(C2CC2)c1-c1ncc2nc(NCc3ccc(S(=O)(=O)CC)cc3)c(=O)n([C@H]3CCOC3)c2n1 [Example 175] | 380 nM
39 | CCS(=O)(=O)c1cnc(CNc2nc3cnc(-c4c(C)ncnc4C4CC4)nc3n([C@@H](C)C(F)(F)F)c2=O)nc1 [Example 188] | 315 nM

Other lines, results leading:

Row | IC50 | SMILES
40 | 230 nM | CCc1ncnc(C2CC2)c1-c1ncc2nc(NCc3ccc(S(=O)(=O)CC)cn3)c(=O)n(C3CCCC3)c2n1 [Example 3]
41 | 280 nM | CCS(=O)(=O)c1ccc(CNc2nc3cnc(-c4c(C5CC5)ncnc4C4CC4)nc3n([C@@H](C)C(C)C)c2=O)nc1 [Example 7]
42 | 300 nM | CCS(=O)(=O)c1ccc(CNc2nc3cnc(-c4c(C5CC5)ncnc4C4CC4)nc3n(C3CCCC3)c2=O)nc1 [Example 13]
43 | 290 nM | CCS(=O)(=O)c1ccc(CNc2nc3cnc(-c4c(C5CC5)ncnc4C4CC4)nc3n([C@@H](C)C3CC3)c2=O)nc1 [Example 73]
44 | 195 nM | CC[C@H](C)n1c(=O)c(NCc2ccc(S(N)(=O)=O)cn2)nc2cnc(-c3c(C)ncnc3C3CC3)nc21 [Example 98]
45 | 107 nM | CCS(=O)(=O)c1sc(CNc2nc3cnc(-c4c(C)ncnc4C4CC4)nc3n([C@@H](C)C3CC3)c2=O)nc1C [Example 114]
46 | 285 nM | CCS(=O)(=O)N1CCC(CNc2nc3cnc(-c4c(C)ncnc4C4CC4)nc3n(C(C)C)c2=O)CC1 [Example 130]
47 | 205 nM | CCS(=O)(=O)N1CCC(CNc2nc3cnc(-c4c(OC)ncnc4C4CC4)nc3n(C(C)C)c2=O)CC1 [Example 131]
48 | 240 nM | CNS(=O)(=O)c1ccc(CNc2nc3cnc(-c4c(C)ncnc4C4CC4)nc3n([C@@H](C)C3CC3)c2=O)cc1 [Example 135]
49 | 255 nM | COc1ncnc(C2CC2)c1-c1ncc2nc(NCc3ccc(S(N)(=O)=O)cc3)c(=O)n(C(C)C)c2n1 [Example 151]
50 | 295 nM | CCS(=O)(=O)c1ccc(CNc2nc3cnc(-c4c(OC)ncnc4C4CC4)nc3n(CC(C)C)c2=O)cn1 [Example 154]
51 | 185 nM | CNS(=O)(=O)c1ccc(CNc2nc3cnc(-c4c(OC)ncnc4C4CC4)nc3n(C(C)C)c2=O)nc1 [Example 155]
52 | 285 nM | Cc1ncnc(C2CC2)c1-c1ncc2nc(NCc3ccc(S(C)(=N)=O)cc3)c(=O)n([C@@H](C)C3CC3)c2n1 (stereo partly drawn) [Example 160]
53 | 157 nM | Cc1ncnc(C2CC2)c1-c1ncc2nc(NCC3CCN(S(=O)(=O)CC#N)CC3)c(=O)n([C@@H](C)C3CC3)c2n1 [Example 165]
54 | 145 nM | COCCS(=O)(=O)N1CCC(CNc2nc3cnc(-c4c(OC)ncnc4C4CC4)nc3n([C@@H](C)C3CC3)c2=O)CC1 [Example 169]
55 | 200 nM | Cc1ncnc(C2CC2)c1-c1ncc2nc(NCc3ccc(S(=O)(=O)CC#N)cc3)c(=O)n(C(C)C)c2n1 [Example 171]
56 | 275 nM | CCS(=O)(=O)c1ccc(CNc2nc3cnc(-c4c(C5CC5)ncnc4C4CC4)nc3n([C@H]3CCOC3)c2=O)cc1 [Example 174]
57 | 240 nM | CCS(=O)(=O)c1ccc(CNc2nc3cnc(-c4c(C)ncnc4C(C)C)nc3n(C(C)C)c2=O)nc1 [Example 178]
58 | 175 nM | COc1ncnc(C2CC2)c1-c1ncc2nc(NCc3ccc(S(C)(=O)=O)cn3)c(=O)n([C@@H](C)C(F)(F)F)c2n1 [Example 181]
59 | 295 nM | CC[C@@H](C)n1c(=O)c(NCc2ncc(S(=O)(=O)CC)cn2)nc2cnc(-c3c(OC)ncnc3C3CC3)nc21 [Example 184]
60 | 150 nM | CC[C@@H](C)n1c(=O)c(NCc2ncc(S(=O)(=O)CC)cn2)nc2cnc(-c3c(C4CC4)ncnc3C3CC3)nc21 [Example 186]
61 | 255 nM | CCS(=O)(=O)c1cnc(CNc2nc3cnc(-c4c(OC)ncnc4C4CC4)nc3n([C@@H](C)C(F)(F)F)c2=O)nc1 [Example 187]
62 | 120 nM | CC[C@@H](C)n1c(=O)c(NCc2ccc(S(C)(=O)=O)cc2)nc2cnc(-c3c(C)ncnc3C3CC3)nc21 [Example 189]
63 | 130 nM | CC[C@@H](C)n1c(=O)c(NCc2ccc(S(C)(=O)=O)cc2)nc2cnc(-c3c(OC)ncnc3C3CC3)nc21 [Example 190]
